Source: ChEMBL document CHEMBL5338773, “First-in-Class Selective Inhibitors of the Lysine Acetyltransferase KAT8” (J Med Chem, 2023)
Activity calls are given as the source filed them. The calls are words filed in the database; no cut-off is given here.

What was measured:
U-937 = experiment: Antiproliferative activity against human U-937 cells assessed as cell proliferation inhibition at 10 to 100 uM incubated for 72 hrs by MTT assay; assay type: functional, cell-based; settings: dose 10-100 µM
MCF7 = experiment: Antiproliferative activity against human MCF7 cells assessed as cell proliferation inhibition at 10 to 100 uM incubated for 72 hrs by MTT assay; assay type: functional, cell-based; settings: dose 10-100 µM
[1] = target: T1, Histone acetyltransferase KAT8 (Homo sapiens) (UniProt Q9H7Z6); experiment: Inhibition of human KAT8 in human HT-29 cells assessed as decrease in histone H4K16 acetylation level by measuring fluorescence intensity in nucleus at 50 uM incubated for 24 hrs by DAPI staining based immunofluorescence analysis; assay type: cell-based
T1 sequence (whole entry): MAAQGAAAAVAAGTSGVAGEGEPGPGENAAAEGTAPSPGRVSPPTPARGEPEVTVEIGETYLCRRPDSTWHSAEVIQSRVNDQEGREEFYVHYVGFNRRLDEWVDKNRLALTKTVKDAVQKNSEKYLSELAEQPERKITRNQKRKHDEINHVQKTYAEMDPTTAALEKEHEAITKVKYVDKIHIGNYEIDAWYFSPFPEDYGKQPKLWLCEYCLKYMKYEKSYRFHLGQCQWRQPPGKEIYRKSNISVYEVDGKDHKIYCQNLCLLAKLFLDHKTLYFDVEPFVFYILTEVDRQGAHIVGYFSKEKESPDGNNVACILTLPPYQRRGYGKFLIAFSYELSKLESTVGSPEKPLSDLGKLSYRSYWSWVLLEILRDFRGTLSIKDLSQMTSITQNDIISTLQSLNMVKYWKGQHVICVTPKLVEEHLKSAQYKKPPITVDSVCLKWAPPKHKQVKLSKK

HT-29 = experiment: Induction of apoptosis in human HT-29 cells assessed as slight increase in apoptotic cells at 50 to 100 uM incubated for 72 hrs by Annexin V-FITC staining based flow cytometry; assay type: functional, cell-based; settings: dose 50-100 µM
[2] = target: Histone acetyltransferase p300 (Homo sapiens) (UniProt Q09472); experiment: Inhibition of recombinant human KAT3B (1287 to 1673 residues) using histone H3 peptide and [3H]-acetyl-coA as substrates at 200 uM incubated for 1 hrs by liquid scintillation counter analysis
Histone acetyltransferase p300 (Homo sapiens), sequence (Q09472 whole entry, the tested form may be a part): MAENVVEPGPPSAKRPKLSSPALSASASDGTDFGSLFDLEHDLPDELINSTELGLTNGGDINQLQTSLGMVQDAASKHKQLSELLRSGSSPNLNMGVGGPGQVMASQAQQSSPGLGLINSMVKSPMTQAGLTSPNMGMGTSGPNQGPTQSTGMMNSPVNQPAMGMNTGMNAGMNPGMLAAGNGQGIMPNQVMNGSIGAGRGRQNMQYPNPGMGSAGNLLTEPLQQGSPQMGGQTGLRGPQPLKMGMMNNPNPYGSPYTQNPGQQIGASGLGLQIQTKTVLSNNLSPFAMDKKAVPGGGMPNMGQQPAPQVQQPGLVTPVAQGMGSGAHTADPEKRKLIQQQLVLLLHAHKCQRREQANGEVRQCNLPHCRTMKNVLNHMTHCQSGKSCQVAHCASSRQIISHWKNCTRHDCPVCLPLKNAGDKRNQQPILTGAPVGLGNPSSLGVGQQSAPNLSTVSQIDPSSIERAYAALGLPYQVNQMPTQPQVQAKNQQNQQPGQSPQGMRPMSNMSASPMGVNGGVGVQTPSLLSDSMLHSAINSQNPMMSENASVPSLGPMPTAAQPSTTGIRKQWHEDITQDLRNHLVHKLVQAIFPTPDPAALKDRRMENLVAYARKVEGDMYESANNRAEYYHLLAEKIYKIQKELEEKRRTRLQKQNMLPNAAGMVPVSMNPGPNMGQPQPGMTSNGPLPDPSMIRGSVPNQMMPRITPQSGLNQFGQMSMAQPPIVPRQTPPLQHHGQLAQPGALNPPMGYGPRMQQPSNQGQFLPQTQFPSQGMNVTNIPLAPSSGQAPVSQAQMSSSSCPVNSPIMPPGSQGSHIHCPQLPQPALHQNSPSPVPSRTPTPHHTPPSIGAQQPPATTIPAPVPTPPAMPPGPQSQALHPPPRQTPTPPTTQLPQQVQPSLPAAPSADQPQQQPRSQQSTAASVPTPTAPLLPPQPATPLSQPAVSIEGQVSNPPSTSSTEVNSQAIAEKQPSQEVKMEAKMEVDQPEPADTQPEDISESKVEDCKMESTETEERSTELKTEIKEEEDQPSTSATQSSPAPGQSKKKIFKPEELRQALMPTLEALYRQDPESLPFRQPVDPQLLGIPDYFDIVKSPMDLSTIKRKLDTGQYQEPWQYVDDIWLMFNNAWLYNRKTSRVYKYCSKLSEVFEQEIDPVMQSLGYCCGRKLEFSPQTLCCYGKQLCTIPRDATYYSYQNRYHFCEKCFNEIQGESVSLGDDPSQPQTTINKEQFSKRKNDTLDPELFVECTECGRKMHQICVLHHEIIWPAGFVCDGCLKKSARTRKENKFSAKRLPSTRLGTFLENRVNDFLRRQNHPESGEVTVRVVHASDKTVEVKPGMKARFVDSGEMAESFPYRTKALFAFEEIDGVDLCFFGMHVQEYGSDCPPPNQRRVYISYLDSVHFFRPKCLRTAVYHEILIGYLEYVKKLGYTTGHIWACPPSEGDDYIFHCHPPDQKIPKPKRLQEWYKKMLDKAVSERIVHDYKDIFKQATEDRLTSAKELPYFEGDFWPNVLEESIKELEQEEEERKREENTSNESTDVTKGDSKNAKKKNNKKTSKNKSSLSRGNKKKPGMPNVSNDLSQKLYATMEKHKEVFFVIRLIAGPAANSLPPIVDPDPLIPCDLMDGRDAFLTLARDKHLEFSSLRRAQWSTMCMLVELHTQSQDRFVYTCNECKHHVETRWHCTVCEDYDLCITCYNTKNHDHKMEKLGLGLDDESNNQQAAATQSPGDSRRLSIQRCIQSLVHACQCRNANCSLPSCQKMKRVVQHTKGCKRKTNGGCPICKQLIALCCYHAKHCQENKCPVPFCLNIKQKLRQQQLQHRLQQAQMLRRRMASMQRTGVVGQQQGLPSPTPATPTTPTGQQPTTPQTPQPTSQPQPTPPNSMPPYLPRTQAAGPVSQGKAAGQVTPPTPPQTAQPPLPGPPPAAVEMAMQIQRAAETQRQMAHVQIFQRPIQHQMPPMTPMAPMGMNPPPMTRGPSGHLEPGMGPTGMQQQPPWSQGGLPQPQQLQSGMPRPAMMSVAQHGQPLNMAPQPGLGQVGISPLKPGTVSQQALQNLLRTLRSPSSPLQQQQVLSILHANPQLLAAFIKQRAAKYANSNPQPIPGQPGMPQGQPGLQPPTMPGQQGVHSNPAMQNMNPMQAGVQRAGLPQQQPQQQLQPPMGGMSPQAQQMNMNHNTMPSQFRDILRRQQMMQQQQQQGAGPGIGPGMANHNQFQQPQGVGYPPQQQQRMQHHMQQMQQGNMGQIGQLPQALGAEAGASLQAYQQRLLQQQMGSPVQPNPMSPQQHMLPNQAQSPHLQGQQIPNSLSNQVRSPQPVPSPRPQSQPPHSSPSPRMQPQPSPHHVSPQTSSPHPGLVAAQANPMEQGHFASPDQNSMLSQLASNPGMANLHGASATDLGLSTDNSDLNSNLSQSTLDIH

[3] = target: Histone acetyltransferase KAT2B (Homo sapiens) (UniProt Q92831); experiment: Inhibition of recombinant human KAT2B (492 to 658 residues) using histone H3 peptide and [3H]-acetyl-coA as substrates at 200 uM incubated for 1 hrs by liquid scintillation counter analysis
Histone acetyltransferase KAT2B (Homo sapiens), sequence (Q92831 whole entry, looked up, the tested form may be a part): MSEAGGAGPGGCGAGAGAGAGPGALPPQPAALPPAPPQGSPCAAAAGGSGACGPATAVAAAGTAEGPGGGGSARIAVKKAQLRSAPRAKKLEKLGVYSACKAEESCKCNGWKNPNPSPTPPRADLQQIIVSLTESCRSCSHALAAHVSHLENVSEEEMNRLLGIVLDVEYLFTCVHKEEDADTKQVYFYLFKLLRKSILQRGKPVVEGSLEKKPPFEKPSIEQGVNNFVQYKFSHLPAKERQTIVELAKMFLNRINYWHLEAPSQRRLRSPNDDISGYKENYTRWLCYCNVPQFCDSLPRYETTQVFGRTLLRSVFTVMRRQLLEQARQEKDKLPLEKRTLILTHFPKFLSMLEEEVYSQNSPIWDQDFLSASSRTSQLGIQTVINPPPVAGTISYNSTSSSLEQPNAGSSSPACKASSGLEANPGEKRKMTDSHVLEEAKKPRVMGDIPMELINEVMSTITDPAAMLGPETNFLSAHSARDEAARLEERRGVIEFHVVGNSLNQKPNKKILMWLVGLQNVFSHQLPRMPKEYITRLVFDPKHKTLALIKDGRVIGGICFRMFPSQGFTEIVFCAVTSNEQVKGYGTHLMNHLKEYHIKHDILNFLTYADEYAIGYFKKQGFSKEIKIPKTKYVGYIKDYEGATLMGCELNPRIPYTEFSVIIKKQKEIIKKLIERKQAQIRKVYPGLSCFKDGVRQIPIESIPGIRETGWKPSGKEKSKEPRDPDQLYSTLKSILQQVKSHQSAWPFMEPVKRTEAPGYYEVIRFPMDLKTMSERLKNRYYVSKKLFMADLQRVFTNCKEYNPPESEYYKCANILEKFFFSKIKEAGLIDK

HeLa [4] = experiment: Induction of autophagy in human HeLa cells stably expressing EGFP-LC3 assessed as change in LC3-II/LC3-I ratio at 10 to 100 uM incubated for 48 hrs by Western blot analysis; assay type: functional, cell-based; settings: dose 10-100 µM
HCT-116 [5] = experiment: Downregulation of HOXA9A mRNA expression in human HCT-116 cells at 100 uM incubated for 48 hrs by qRT-PCR analysis; assay type: functional, cell-based
HeLa [6] = experiment: Induction of autophagy in human HeLa cells stably expressing EGFP-LC3 assessed as increase in p62 expression level at 10 to 100 uM incubated for 48 hrs by Western blot analysis; assay type: functional, cell-based; settings: dose 10-100 µM
[7] = target: Histone acetyltransferase KAT6A (Homo sapiens) (UniProt Q92794); experiment: Inhibition of recombinant human KAT6A (488 to 778 residues) using histone H3 peptide and [3H]-acetyl-coA as substrates at 200 uM incubated for 1 hrs by liquid scintillation counter analysis
HCT-116 [8] = experiment: Antiproliferative activity against human HCT-116 cells assessed as cell proliferation inhibition at 100 uM incubated for 72 hrs by MTT assay; assay type: functional; set-up: scale not given: the % may be the effect or the level left
[9] = target: Histone acetyltransferase KAT7 (Homo sapiens) (UniProt O95251); experiment: Inhibition of recombinant human full length KAT7 using histone H3 peptide and [3H]-acetyl-coA as substrates at 200 uM incubated for 1 hrs by liquid scintillation counter analysis
Histone acetyltransferase KAT7 (Homo sapiens), sequence (O95251 whole entry): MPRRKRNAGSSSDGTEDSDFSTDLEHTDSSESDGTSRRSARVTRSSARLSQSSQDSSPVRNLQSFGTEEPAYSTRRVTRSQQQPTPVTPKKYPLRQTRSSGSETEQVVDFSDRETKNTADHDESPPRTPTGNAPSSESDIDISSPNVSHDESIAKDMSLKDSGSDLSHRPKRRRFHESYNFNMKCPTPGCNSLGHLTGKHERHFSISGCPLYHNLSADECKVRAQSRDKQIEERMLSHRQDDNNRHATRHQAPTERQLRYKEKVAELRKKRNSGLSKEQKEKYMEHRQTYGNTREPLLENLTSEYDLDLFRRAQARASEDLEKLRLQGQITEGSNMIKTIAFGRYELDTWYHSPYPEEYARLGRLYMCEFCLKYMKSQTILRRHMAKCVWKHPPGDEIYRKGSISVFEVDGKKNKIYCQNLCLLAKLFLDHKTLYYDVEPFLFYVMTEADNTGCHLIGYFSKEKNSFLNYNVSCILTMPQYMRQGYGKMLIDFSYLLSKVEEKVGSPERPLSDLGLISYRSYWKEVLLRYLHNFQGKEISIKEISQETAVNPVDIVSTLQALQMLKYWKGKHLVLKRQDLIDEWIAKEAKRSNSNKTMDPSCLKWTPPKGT

SMILES | Activity (U-937) | Activity (MCF7) | inhibition [1] | Activity (HT-29) | inhibition [2] | inhibition [3] | Activity (HeLa [4]) | Activity (HCT-116 [5]) | Activity (HeLa [6]) | inhibition [7] | Activity (HCT-116 [8]) | inhibition [9]
O=C(O)c1ccc(N2N=C(c3ccccc3)/C(=C/c3ccc[nH]3)C2=O)cc1 | Dose-Dependent Effect | inactive | > 50% | Active | inactive | inactive | Active | Active | Active |  |  | 
CC1=NN(c2ccc(C(=O)O)cc2)C(=O)/C1=C\c1ccc[nH]1 | Dose-Dependent Effect | inactive |  | Active | inactive | inactive |  |  |  | inactive | >80% | inactive
